In patent publication US11919905B2, “Substituted benzo[f]imidazo[1,2-a][1,4]diazepines as anesthetics” (HANGZHOU ADAMERCK PHARMLABS INC., priority 2017, dated 2024):

What was measured:
mice [1] = assay: Single i.v. administration: autonomous activity of mice; format: in vivo
Protocol: Animals in each group were tested for their autonomous activities, each mouse for 10 minutes. After that, the animals in each group were given a single corresponding drug solution by the tail vein injection (i.v.) according to the corresponding group, 0.1 ml per 10 g body weight, and the autonomous activity of the mice was measured immediately after the administration, and the recording time was 50 min. Data were expressed as mean±standard deviation. Wherein, the dosage of propofol was 20 mg/kg.

mice [2] = assay: Multiple (10 times) i.v. administrations: autonomous activity of mice; format: in vivo
Protocol: Animals in each group were given the corresponding drug solution multiple times by the tail vein injection (i.v.) in accordance with the corresponding group, 0.1 ml per mouse each time, for ten times of consecutive injections (the administration group mice were injected when the righting reflex was recovered). Then the autonomous activity of mice was measured immediately and the recording time was 50 minutes. Data were expressed as mean±standard deviation.

mice [3] = assay: Multiple (9 times) i.v. administrations: duration of disappearance of righting reflex in mice; format: in vivo
Protocol: Animals in each group were given the corresponding drug solution multiple times by the tail vein injection (i.v.) in accordance with the corresponding group, 0.1 ml per mouse each time, for 9 times of consecutive injections (the administration group mice were injected when the righting reflex was recovered). The durations of each disappearance of righting reflex were recorded, and the data was expressed as an average.

ICR mice [4] = assay: Disappearance of righting reflex in mice induced by drugs (single i.v. bolus); format: in vivo; details: 100 mg/kg single bolus via tail vein, male ICR mice
Protocol: After ICR mice (male, 18-25 g) were fast injected with the same dose (100 mg/kg) of the test drug in a single bolus via the tail vein, the incubation period and the duration of disappearance of the righting reflex in mice were recorded. Wherein, the incubation period refers to the time from the start of administration to the disappearance of the animal's righting reflex, and the duration refers to the time from the disappearance of the righting reflex to the recovery.

ICR mice [5] = assay: Effective dose and lethal dose of intravenous administration in mice; format: in vivo
Protocol: ICR mice (males, 18-25 g) were randomly grouped and were fast given a single bolus of different doses of test drug via the tail vein, and the lowest dose causing the righting reflex to disappear (effective dose) and the dose causing animal death (lethal dose) were recorded, and the treatment windows (lethal dose/effective dose) were calculated.

[6] = background statement; cited from earlier work
[7] = 50 mg/kg i.v., administration 1
[8] = 50 mg/kg i.v., administration 2
[9] = 50 mg/kg i.v., administration 3
[10] = 50 mg/kg i.v., administration 4
[11] = 50 mg/kg i.v., administration 5
[12] = 50 mg/kg i.v., administration 6
[13] = 50 mg/kg i.v., administration 7
[14] = 50 mg/kg i.v., administration 8
[15] = 50 mg/kg i.v., administration 9
[16] = 75 mg/kg i.v., administration 1
[17] = 75 mg/kg i.v., administration 2
[18] = 75 mg/kg i.v., administration 3
[19] = 75 mg/kg i.v., administration 4
[20] = 75 mg/kg i.v., administration 5
[21] = 75 mg/kg i.v., administration 6
[22] = 75 mg/kg i.v., administration 7
[23] = 75 mg/kg i.v., administration 8
[24] = 75 mg/kg i.v., administration 9
[25] = 100 mg/kg i.v., administration 1
[26] = 100 mg/kg i.v., administration 2
[27] = 100 mg/kg i.v., administration 3
[28] = 100 mg/kg i.v., administration 4
[29] = 100 mg/kg i.v., administration 5
[30] = 100 mg/kg i.v., administration 6
[31] = 100 mg/kg i.v., administration 7
[32] = 100 mg/kg i.v., administration 8
[33] = 100 mg/kg i.v., administration 9
[34] = single bolus via tail vein, male ICR mice

COC(=O)CC[C@@H]1N=C(c2ccccn2)c2cc(F)c(C)cc2-n2c(C)cnc21.Cc1ccc(S(=O)(=O)O)cc1 [Compound 1-2]
time after administration until autonomous activity returned to normal level (mice [1]; single i.v. 50 mg/kg (low-dose group)): 15 min | total distance of autonomous activity compared with blank group (mice [1]; single i.v. 50 mg/kg-100 mg/kg, within 10 minutes of injection): significantly lower than that of the blank group | time after administration until autonomous activity returned to normal level (mice [1]; single i.v. 75 mg/kg (medium-dose group)): 35 min | autonomous activity compared with blank group (mice [1]; single i.v. 100 mg/kg (high-dose group), 50 min test period): consistently lower than that of the blank group during the test period | time after administration until autonomous activity returned to normal levels (mice [2]; 10 consecutive i.v. injections, 50 mg/kg): 15 to 20 min | return of autonomous activity to normal levels (mice [2]; 10 consecutive i.v. injections, 100 mg/kg, test period 50 minutes): did not return to normal levels during the test period | recovery of the number of autonomous activities and the rest time after multiple administrations (mice [2]; multiple i.v. administrations, vs propofol): better than that of propofol | Percentage of extension of righting reflex disappearance (mice [3]; [7]): 100% | righting reflex disappearance time (mice [3]; [7]): 2.5 min | Percentage of extension of righting reflex disappearance (mice [3]; [8]): 179% | righting reflex disappearance time (mice [3]; [8]): 4.4 min | Percentage of extension of righting reflex disappearance (mice [3]; [9]): 192% | righting reflex disappearance time (mice [3]; [9]): 4.8 min | Percentage of extension of righting reflex disappearance (mice [3]; [10]): 227% | righting reflex disappearance time (mice [3]; [10]): 5.6 min | Percentage of extension of righting reflex disappearance (mice [3]; [11]): 237% | righting reflex disappearance time (mice [3]; [11]): 5.9 min | Percentage of extension of righting reflex disappearance (mice [3]; [12]): 208% | righting reflex disappearance time (mice [3]; [12]): 5.2 min | Percentage of extension of righting reflex disappearance (mice [3]; [13]): 268% | righting reflex disappearance time (mice [3]; [13]): 6.6 min | Percentage of extension of righting reflex disappearance (mice [3]; [14]): 260% | righting reflex disappearance time (mice [3]; [14]): 6.5 min | Percentage of extension of righting reflex disappearance (mice [3]; [15]): 268% | righting reflex disappearance time (mice [3]; [15]): 6.6 min | disappearance time of righting reflex as share of that of the propofol group (mice [3]; 75 mg/kg dose group, after 6-7 administrations, vs propofol 20 mg/kg): 65-70% | Percentage of extension of righting reflex disappearance (mice [3]; [16]): 100% | righting reflex disappearance time (mice [3]; [16]): 5.3 min | Percentage of extension of righting reflex disappearance (mice [3]; [17]): 128% | righting reflex disappearance time (mice [3]; [17]): 6.7 min | Percentage of extension of righting reflex disappearance (mice [3]; [18]): 159% | righting reflex disappearance time (mice [3]; [18]): 8.4 min | Percentage of extension of righting reflex disappearance (mice [3]; [19]): 173% | righting reflex disappearance time (mice [3]; [19]): 9.1 min | Percentage of extension of righting reflex disappearance (mice [3]; [20]): 194% | righting reflex disappearance time (mice [3]; [20]): 10.2 min | Percentage of extension of righting reflex disappearance (mice [3]; [21]): 219% | righting reflex disappearance time (mice [3]; [21]): 11.5 min | Percentage of extension of righting reflex disappearance (mice [3]; [22]): 231% | righting reflex disappearance time (mice [3]; [22]): 12.1 min | Percentage of extension of righting reflex disappearance (mice [3]; [23]): 211% | righting reflex disappearance time (mice [3]; [23]): 11.1 min | Percentage of extension of righting reflex disappearance (mice [3]; [24]): 211% | righting reflex disappearance time (mice [3]; [24]): 11.1 min | Percentage of extension of righting reflex disappearance (mice [3]; [25]): 100% | righting reflex disappearance time (mice [3]; [25]): 8.9 min | Percentage of extension of righting reflex disappearance (mice [3]; [26]): 121% | righting reflex disappearance time (mice [3]; [26]): 10.8 min | Percentage of extension of righting reflex disappearance (mice [3]; [27]): 154% | righting reflex disappearance time (mice [3]; [27]): 13.8 min | Percentage of extension of righting reflex disappearance (mice [3]; [28]): 177% | righting reflex disappearance time (mice [3]; [28]): 15.8 min | Percentage of extension of righting reflex disappearance (mice [3]; [29]): 181% | righting reflex disappearance time (mice [3]; [29]): 16.2 min | Percentage of extension of righting reflex disappearance (mice [3]; [30]): 240% | righting reflex disappearance time (mice [3]; [30]): 21.5 min | Percentage of extension of righting reflex disappearance (mice [3]; [31]): 234% | righting reflex disappearance time (mice [3]; [31]): 20.9 min | Percentage of extension of righting reflex disappearance (mice [3]; [32]): 238% | righting reflex disappearance time (mice [3]; [32]): 21.2 min | Percentage of extension of righting reflex disappearance (mice [3]; [33]): 236% | righting reflex disappearance time (mice [3]; [33]): 21.1 min | accumulation effect (prolonged rate of righting reflex disappearance time after multiple administrations) (mice [3]; each dose group vs propofol group): lower than that of propofol | dose dependence of duration of righting reflex disappearance (mice [3]; i.v., 50-100 mg/kg): dose-dependent | number of consecutive administrations after which duration of righting reflex disappearance reached steady state (mice [3]; repeated i.v. administration, each dose group): 5-6 | Duration (time from disappearance of righting reflex to recovery) (ICR mice [4]): 6.02 min | Incubation period (time from start of administration to disappearance of righting reflex) (ICR mice [4]): 0.52 min | minimal effective dose (ICR mice [5]; Mus musculus, iv, single bolus via tail vein, male ICR mice, read-out: Effective dose (lowest dose causing the righting reflex to disappear)): 40 mg/kg | effective dose reduced, compared to remimazolam (p-toluenesulfonate) (ICR mice [5]; mice, i.v.): 33.3% | lethal dose increased, compared to remimazolam (p-toluenesulfonate) (ICR mice [5]; mice, i.v.): 64% | treatment window increased, compared to remimazolam (p-toluenesulfonate) (ICR mice [5]; mice, i.v.): 2.5 times | Lethal dose (dose causing animal death) (ICR mice [5]; [34]): 360 mg/kg | Treatment window (lethal dose/effective dose) (ICR mice [5]; [34]): 9

COC(=O)CC[C@@H]1N=C(c2ccccn2)c2cc(Br)ccc2-n2c(C)cnc21.O=S(=O)(O)c1ccccc1 [Remimazolam (besylate), Remimazolam, reference compound]
Duration (time from disappearance of righting reflex to recovery) (ICR mice [4]): 10.61 min | Incubation period (time from start of administration to disappearance of righting reflex) (ICR mice [4]): 0.64 min | side effects in preclinical animal experiments [6]: limb jitters, head tilting, opisthotonus | Effective dose (lowest dose causing the righting reflex to disappear) (ICR mice [5]; [34]): 60 mg/kg | Lethal dose (dose causing animal death) (ICR mice [5]; [34]): 280 mg/kg | Treatment window (lethal dose/effective dose) (ICR mice [5]; [34]): 4.6

COC(=O)CC[C@@H]1N=C(c2ccccn2)c2cc(Br)ccc2-n2c(C)cnc21.Cc1ccc(S(=O)(=O)O)cc1 [Remimazolam (p-toluenesulfonate), Remimazolam, reference compound]
Duration (time from disappearance of righting reflex to recovery) (ICR mice [4]): 9.43 min | Incubation period (time from start of administration to disappearance of righting reflex) (ICR mice [4]): 0.73 min | side effects in preclinical animal experiments [6]: limb jitters, head tilting, opisthotonus | Effective dose (lowest dose causing the righting reflex to disappear) (ICR mice [5]; [34]): 60 mg/kg | Lethal dose (dose causing animal death) (ICR mice [5]; [34]): 220 mg/kg | Treatment window (lethal dose/effective dose) (ICR mice [5]; [34]): 3.6
